Tests used:
HCT-116 [1] = test: Cytotoxicity against human HCT-116 cells assessed as reduction in cell viability; assay type: functional, cell-based
HL-60 [2] = test: Cytotoxicity against human HL-60 cells assessed as reduction in cell viability; assay type: functional, cell-based
HL-60 [3] = test: Cytotoxicity against human HL-60 cells assessed as cell viability at 10 uM relative to control; assay type: functional; settings: read-out: Activity
HL-60 [4] = test: Cytotoxicity against human HL-60 cells assessed as cell viability at 1 uM relative to control; assay type: functional; settings: read-out: Activity
HCT-116 [5] = test: Cytotoxicity against human HCT-116 cells assessed as cell viability at 1 uM relative to control; assay type: functional; settings: read-out: Activity
HCT-116 [6] = test: Cytotoxicity against human HCT-116 cells assessed as cell viability at 10 uM relative to control; assay type: functional; settings: read-out: Activity
HCT-116 [7] = test: Growth inhibition of human HCT-116 cells at 1 uM relative to control; assay type: functional; design: scale not given: the % may be the effect or the level left
[8] = Homo sapiens, HL-60, read-out: IC50

SMILES	IC50 (HCT-116 [1]) [nM]	IC50 (HL-60 [2]; hl-60) [nM]	viability at 10 µM (HL-60 [3]) [%]	viability at 1 µM (HL-60 [4]) [%]	IC50 (HL-60 [2]; [8]) [nM]	viability at 1 µM (HCT-116 [5]) [%]	viability at 10 µM (HCT-116 [6]) [%]	Activity (HCT-116 [7]) [%]
COc1cccc2c1C(=O)c1c(O)c3c(c(O)c1C2=O)C[C@@](O)(C(=O)CO)C[C@@H]3O[C@H]1C[C@H](N)[C@H](O)[C@H](C)O1 [DOXORUBICIN]	10	90	–	–	–	–	–	–
O=C1C=C2C=C[C@@H]3C[C@]2(CN3Cc2ccccc2)O1	–	–	3	11	100	100	86	–
O=C1C=C2C=C[C@@H]3C[C@@]2(O1)[C@H]1CCCCN31 [SECURININE]	8600	–	0.4	8	100	98	13	–
CC(C)CN1C[C@]23C[C@H]1C=CC2=CC(=O)O3	–	–	1	15	–	83	78	–
O=C1C=C2C(I)=C[C@@H]3C[C@]2(CN3Cc2ccccc2)O1	60	–	0	4	350	5	1	80.9

Source: ChEMBL document CHEMBL5154750 (Bioorg Med Chem, 2022)
